Reference: US10909691B2, “Automatically classifying animal behavior” (PRESIDENT AND FELLOWS OF HARVARD COLLEGE, priority 2016, dated 2021)

System: mice
Assay: Innate behavioral response to odorant in square odor box (3D depth imaging, AR-HMM analysis)
Assay type: in vivo, mouse

## CC1=NC(C)SC1C (stereo not drawn) [TMT]
TMT delivered to one quadrant of the square box via olfactometer
  observed behavior of mice on odor exposure: avoided the quadrant containing the predator cue and displayed prolonged periods of immobility traditionally described as freezing behavior
After TMT exposure
  per frame entropy rate with self-transitions: 0.64±0.02 bits
  per frame entropy rate without self-transitions: 3.66±0.08 bits
After TMT exposure, in 300 minutes of imaging
  number of times the most commonly-expressed freezing trigram was expressed: 716 times
n=15 in TMT, n=25 control, model co-trained on both datasets
  change in behavioral modules relative to control: several modules were up-or down-regulated after TMT exposure, but no new modules were introduced or eliminated relative to control
Under the influence of TMT, 5% concentration, delivered to one quadrant of the box
  average during-sequence velocity of freezing module sequences: −0.14±0.54 mm/sec
